Results from PubChem BioAssay (NCI).
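Grown in 96-well plates, cells were treated for 48 hours with each compound at five concentrations. Insufficient inhibition: endpoint recorded as highest concentration tested. The concentration for 50% growth inhibition is given as GI50. TGI marks complete inhibition of growth.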

Assays:
Assay in all cases: NCI tumour cell line growth inhibition, 48 h
DU-145 prostate = test system: DU-145 prostate
HCC-2998 colon = test system: HCC-2998 colon
MALME-3M melanoma = test system: MALME-3M melanoma
NCI-H522 lung = test system: NCI-H522 lung
OVCAR-3 ovarian = test system: OVCAR-3 ovarian
SK-MEL-2 melanoma = test system: SK-MEL-2 melanoma
SW-620 colon = test system: SW-620 colon
U251 CNS = test system: U251 CNS
UO-31 renal = test system: UO-31 renal
KM12 colon = test system: KM12 colon

Row | Compound | GI50 (DU-145 prostate) [µM] | TGI (DU-145 prostate) [µM] | GI50 (HCC-2998 colon) [µM] | TGI (HCC-2998 colon) [µM] | GI50 (MALME-3M melanoma) [µM] | TGI (MALME-3M melanoma) [µM] | GI50 (NCI-H522 lung) [µM] | TGI (NCI-H522 lung) [µM] | GI50 (OVCAR-3 ovarian) [µM] | TGI (OVCAR-3 ovarian) [µM] | GI50 (SK-MEL-2 melanoma) [µM] | TGI (SK-MEL-2 melanoma) [µM] | GI50 (SW-620 colon) [µM] | TGI (SW-620 colon) [µM] | GI50 (U251 CNS) [µM] | TGI (U251 CNS) [µM] | GI50 (UO-31 renal) [µM] | TGI (UO-31 renal) [µM] | GI50 (KM12 colon) [µM] | TGI (KM12 colon) [µM]
1 | COc1ccc2c(c1)OC(N)=C(C#N)C2c1cc(OC)c(OC)c(OC)c1 (centres undefined) | 0.0279 | 0.0802 | 0.0398 | > 100 | 80.5 | > 100 | 0.0194 | 0.0631 | 0.0253 | 0.0648 | 0.0321 | 0.151 | 0.038 | > 100 | 0.0329 | 1.48 | 0.433 | > 100 |  | 
2 | CC1CC2C3CCC4=CC(=O)C=CC4(C)C3(F)C(O)CC2(C)C1(O)C(=O)COP(=O)(O)O (centres undefined) | > 500 | > 500 | > 500 | > 500 | > 500 | > 500 | > 500 | > 500 | > 500 | > 500 | > 500 | > 500 | > 500 | > 500 | > 500 | > 500 | > 500 | > 500 | > 500 | > 500
3 | CC(C)(C)c1cc(C(=O)Nc2ccccc2C(=O)NCCN)cc(C(C)(C)C)c1 | 1.84 | 3.4 | 1.83 | 3.4 | 1.93 | 3.64 | 1.85 | 3.82 | 1.89 | 3.46 | 1.94 | 3.7 | 1.87 | 3.87 | 1.89 | 3.42 | 1.67 | 3.17 | 1.79 | 3.4
4 | CN1CCN(CC(=O)N(C)c2ccc(N=C(c3ccccc3)c3c(O)[nH]c4ccc(C#N)cc34)cc2)CC1 | 3.9 | 14.4 | 3.38 | 13.4 | 1.77 | 3.39 | 5.29 | 22.4 | 3.19 | 14.2 | 3.39 | 15.7 | 1.9 | 6.93 | 2.14 | 6.88 | 2.42 | 11.4 | 0.0516 | 6.03
5 | CC(C)/C=C1\CCC(CN(C)C)C1=O (centres undefined) |  | 3.21 |  | 19.1 |  | 2.29 |  | 0.22 |  | 7.97 |  | 14.3 |  | 1.55 |  | 32.7 |  | 16.5 |  | 4.65
6 | CSc1ccc(C2=C(c3ccccc3)C(=O)OC2)cc1 | 4.49 | > 100 | 0.309 | 18.9 | 3.29 | 64.1 | 0.619 | 2.45 | 0.188 | 0.568 | 1.64 | > 100 | 1 | > 20.1 | 0.329 | 7.05 | 2.66 | > 80.3 | 0.356 | > 77
7 | CC(C)=CCc1cc2c(cc1O)C1=C(C(=O)C3=C(C1=O)S(=O)(=O)CCN3)C(C=C(C)C)O2 (centres undefined) | 0.309 | 0.597 | 1.48 | 3.84 | 0.122 | 0.397 | 0.568 | 1.85 | 0.403 | 1.37 | 1.44 | 5.29 | 0.554 | 1.76 | 1.24 | 3.74 | 1.82 | 4.59 | 2.05 | 6.99
8 | O=C(CS(=O)(=O)c1nc2ccccc2nc1-c1ccccc1)Nc1ccc(F)cc1 | 36.1 | > 100 | 13.3 | 26.9 | 80.7 | > 100 | 48.2 | > 100 | 30.6 | > 100 | 51.9 | > 100 | 46.6 | > 100 | 37.9 | > 100 | 59.1 | > 100 | 31 | 97.7
9 | c1ccc(-c2oc(-c3ccccc3)c(CN3CCCCC3)c2CN2CCCCC2)cc1 | 7.72 | 21.6 | 2.02 | 4.23 | 1.75 | 3.65 | 2.47 | 11.7 | 2.92 | 10.5 | 3.72 | 15.7 | 3.05 | 16.4 | 3.55 | 14.2 | 2.13 | 11.1 | 2.9 | 10.4
10 | C=C1C(=O)O[C@H]2[C@H]1CC/C(COC(=O)c1cc(OC)c(OC)c(OC)c1)=C\CC[C@@]1(C)O[C@@H]21 | 1.23 | 2.47 | 1.92 | 3.88 | 1.77 | 3.77 | 0.589 | 2.25 | 0.39 | 1.44 | 1.6 | 3.63 | 0.355 | 1.57 | 1.6 | 3.47 | 0.402 | 1.7 | 2.26 | 5.82
11 | Cn1cc(/C=C\[N+](=O)[O-])c2ccccc21 | 29.7 | 81.7 | 33.2 | > 100 | > 100 | > 100 | > 100 | > 100 | 28.1 | > 100 | > 100 | > 100 |  |  | 36.5 | > 100 | > 100 | > 100 | 34.9 | > 100
12 | CC(=O)Nc1ccc(C(=O)CCl)cc1 | 9.19 | 21.2 | 7.48 | 20.7 |  |  | 2.06 | 4.17 | 2.55 | 5.82 | 13.3 | 27.8 | 1.73 | 3.38 | 12.4 | 25.1 | 1.71 | 3.26 | 12.2 | 25.7
